Here are results for 4 compounds from ChEMBL document CHEMBL1275532, “Potential for hepatitis C virus resistance to nitazoxanide or tizoxanide” (Antimicrob Agents Chemother, 2008).

The nature of data set [1]: Selectivity Index, ratio of CC50 for TIZ-9 cell harboring HCV genotype 1b to EC50 for HCV genotype 1b in TIZ-9 replicon cell.
Data set [2] can be described thus: Cytotoxicity against human TIZ-9 cell harboring HCV genotype 1b after 4 days by neutral red dye uptake assay. Format: cell-based. The note with it: TIZ-9 cells harboring HCV genotype 1b.
Data set [3] has as its system Hepatitis C virus. As to the kind of experiment: Antiviral activity against HCV genotype 1b in NTZ-11 replicon cell after 4 days by blot hybridization analysis. It is filed as functional, organism-based, Hepacivirus hominis. The conditions noted are these: NTZ-11, 96 h.
The subject of data set [4] is Hepatitis C virus. In words: Antiviral activity against HCV genotype 1b obtained from RP7 cells infected in Huh7.5 cell assessed as viral-induced colony formation efficiency at 10 uM after 10 to 14 days in presence of 125 ug/ml G418. Format: functional, Hepacivirus hominis.
A short description of data set [5]: Cytotoxicity against human RP7 cell harboring HCV genotype 1b after 4 days by neutral red dye uptake assay. Format: cell-based. The conditions noted are these: RP7 cells harboring HCV genotype 1b.
Data set [6] in a line: Cytotoxicity against human NTZ-11 cell harboring HCV genotype 1b after 4 days by neutral red dye uptake assay. It is filed as cell-based. The note with it: NTZ-11 cells harboring HCV genotype 1b.
The subject of data set [7] is Hepatitis C virus. As to the kind of experiment: Antiviral activity against HCV genotype 1b in TIZ-9 replicon cell after 4 days by blot hybridization analysis. Format: functional, organism-based, Hepacivirus hominis. The conditions noted are these: TIZ-9, 96 h. On the technique in general: In antiviral work, replicon cells carry a viral genome segment that copies itself.

Data set [8] deals with Hepatitis C virus. In words: Antiviral activity against HCV genotype 1b obtained from NTZ-11 cells infected in Huh7.5 cell assessed as viral-induced colony formation efficiency at 10 uM after 10 to 14 days in presence of 125 ug/ml G418. It is filed as functional, Hepacivirus hominis.
Data set [9] has as its system Hepatitis C virus. In words: Antiviral activity against HCV genotype 1b obtained from TIZ-9 cells infected in Huh7.5 cell assessed as viral-induced colony formation efficiency at 10 uM after 10 to 14 days in presence of 125 ug/ml G418. Format: functional, Hepacivirus hominis.
Data set [10] is described as follows: Selectivity Index, ratio of CC50 for NTZ-11 cell harboring HCV genotype 1b to EC50 for HCV genotype 1b in NTZ-11 replicon cell.
Data set [11] in a line: Selectivity Index, ratio of CC50 for RP7 cell harboring HCV genotype 1b to EC50 for HCV genotype 1b in RP7 replicon cell.
For data set [12], the system named is Hepatitis C virus. In words: Antiviral activity against HCV genotype 1b in RP7 replicon cell after 4 days by blot hybridization analysis. Format: functional, organism-based, Hepacivirus hominis. The conditions noted are these: 96 h.
Data set [13] deals with Hepatitis C virus. In words: Antiviral activity against HCV genotype 1a in replicon system. It is filed as functional, organism-based, Hepacivirus hominis. The conditions noted are these: subtype 1a.
In data set [14] the test system is Hepatitis C virus. In words: Antiviral activity against HCV genotype 1b obtained from RP7 cells infected in Huh7.5 cell assessed as viral-induced colony formation efficiency at 1 uM after 10 to 14 days in presence of 125 ug/ml G418. Format: functional, Hepacivirus hominis.
Data set [15] has as its system Hepatitis C virus. In words: Antiviral activity against HCV genotype 1b obtained from TIZ-9 cells infected in Huh7.5 cell assessed as viral-induced colony formation efficiency at 1 uM after 10 to 14 days in presence of 125 ug/ml G418. It is filed as functional, Hepacivirus hominis.
Data set [16] concerns Hepatitis C virus. As to the kind of experiment: Antiviral activity against HCV genotype 1b in replicon system. Format: functional, organism-based, Hepacivirus hominis.
Data set [17] relates to Hepatitis C virus. In words: Antiviral activity against HCV genotype 1b obtained from NTZ-11 cells infected in Huh7.5 cell assessed as viral-induced colony formation efficiency at 1 uM after 10 to 14 days in presence of 125 ug/ml G418. It is filed as functional, Hepacivirus hominis.

Consider `C[C@@]1(O)[C@H](O)[C@@H](CO)O[C@H]1n1ccc(N)nc1=O`, for which the figures for the “Ratio CC50/EC50” value in [1], in data set [10] and in [11] were over 136, over 158 and over 150, respectively. For the same compound, the CC50 at 96 h in [2], in [5] and in data set [6] was over 300 µM throughout. Further, the EC50 in data set [3] worked out at 1.9 µM; in [7], 2.2 µM; in data set [12] it was 2 µM. Also, the concentration for an effect of 90% (EC90) in [3] stood at 6.1 µM; in [7], 8.9 µM; in data set [12], 9 µM. Moreover, the Activity in data set [4] stood at 10%; in [8] it was 13%; in [9], 9%.
As to `CC(=O)Oc1ccccc1C(=O)Nc1ncc([N+](=O)[O-])s1` [NITAZOXANIDE], the “Ratio CC50/EC50” value in data set [1] amounted to 65; in data set [10], 57; in data set [11], 238. The 50% cytotoxic concentration (CC50) at 96 h is 97 µM in [2], 38 µM in [5] and 68 µM in data set [6]. The EC50 turned out to be 1.2 µM in data set [3], 0.13 µM in [13], 1.5 µM in [7] and 0.16 µM in [12]. Further, the 90% effect concentration (EC90) in data set [3] turned out to be 17 µM; in [7], 26 µM; in data set [12], 1.2 µM.
As for `NC(=O)c1ncn([C@@H]2O[C@H](CO)[C@@H](O)[C@H]2O)n1` [RIBAVIRIN], the “Ratio CC50/EC50” value came to 1.8 in [1], 1.4 in [10] and 1.1 in data set [11]. Also, the 50% cytotoxic concentration (CC50) at 96 h in data set [2] came out at 95 µM; in data set [5] it was 77 µM; in data set [6] it was 66 µM. Further, the 50% effective concentration (EC50) stood at 47 µM in data set [3], 52 µM in [7] and 69 µM in [12]. The 90% effect concentration (EC90) is 107 µM in data set [3], 123 µM in [7] and 122 µM in data set [12].
For the compound `O=C(Nc1ncc([N+](=O)[O-])s1)c1ccccc1O` [TIZOXANIDE], the “Ratio CC50/EC50” value in data set [1] came out at 46; in data set [10], 67; in data set [11] it was 167. The CC50 at 96 h is 92 µM in data set [2], 25 µM in [5] and 74 µM in data set [6]. For the same compound, the 50% effective concentration (EC50) came to 1.1 µM in data set [3], 2 µM in data set [7], 0.15 µM in data set [16] and 0.15 µM in data set [12]. The EC90 in [3] came to 18 µM; in data set [7], 35 µM; in [12], 0.94 µM. Besides, the Activity in [14] was 7%; in data set [4], 0%; in data set [8] it was 0%; in data set [15], 12%; in data set [17] it was 8%; in data set [9], 0%.

As a reminder, the CC50 is the concentration at which the toxic effect on the cells reaches its halfway point. High values mean better tolerance by the cells, low ones harm at low concentration. One may read the EC50 as the concentration that produces a half-maximal response. A higher EC50 goes with a less potent agent. What is called EC90 is the point of the concentration-response curve where the effect stands at 90%.
